Data on two compounds can be found in ChEMBL document CHEMBL5696442, “Discovery of type II inhibitors of TGFβ-activated kinase 1 (TAK1) and mitogen-activated protein kinase kinase kinase kinase 2 (MAP4K2)” (J Med Chem, 2015).

A word on the inhibition: it is the relative decrease from the control value, in per cent.

In assay [1] the target is Macrophage colony-stimulating factor 1 receptor (Homo sapiens) (UniProt P07333). As to the kind of experiment: Inhibition of CSF1R (unknown origin) at 1 uM by Ambit Kinomescan binding assay relative to control; values are per cent of control.
Sequence of Macrophage colony-stimulating factor 1 receptor (Homo sapiens) (P07333 whole entry): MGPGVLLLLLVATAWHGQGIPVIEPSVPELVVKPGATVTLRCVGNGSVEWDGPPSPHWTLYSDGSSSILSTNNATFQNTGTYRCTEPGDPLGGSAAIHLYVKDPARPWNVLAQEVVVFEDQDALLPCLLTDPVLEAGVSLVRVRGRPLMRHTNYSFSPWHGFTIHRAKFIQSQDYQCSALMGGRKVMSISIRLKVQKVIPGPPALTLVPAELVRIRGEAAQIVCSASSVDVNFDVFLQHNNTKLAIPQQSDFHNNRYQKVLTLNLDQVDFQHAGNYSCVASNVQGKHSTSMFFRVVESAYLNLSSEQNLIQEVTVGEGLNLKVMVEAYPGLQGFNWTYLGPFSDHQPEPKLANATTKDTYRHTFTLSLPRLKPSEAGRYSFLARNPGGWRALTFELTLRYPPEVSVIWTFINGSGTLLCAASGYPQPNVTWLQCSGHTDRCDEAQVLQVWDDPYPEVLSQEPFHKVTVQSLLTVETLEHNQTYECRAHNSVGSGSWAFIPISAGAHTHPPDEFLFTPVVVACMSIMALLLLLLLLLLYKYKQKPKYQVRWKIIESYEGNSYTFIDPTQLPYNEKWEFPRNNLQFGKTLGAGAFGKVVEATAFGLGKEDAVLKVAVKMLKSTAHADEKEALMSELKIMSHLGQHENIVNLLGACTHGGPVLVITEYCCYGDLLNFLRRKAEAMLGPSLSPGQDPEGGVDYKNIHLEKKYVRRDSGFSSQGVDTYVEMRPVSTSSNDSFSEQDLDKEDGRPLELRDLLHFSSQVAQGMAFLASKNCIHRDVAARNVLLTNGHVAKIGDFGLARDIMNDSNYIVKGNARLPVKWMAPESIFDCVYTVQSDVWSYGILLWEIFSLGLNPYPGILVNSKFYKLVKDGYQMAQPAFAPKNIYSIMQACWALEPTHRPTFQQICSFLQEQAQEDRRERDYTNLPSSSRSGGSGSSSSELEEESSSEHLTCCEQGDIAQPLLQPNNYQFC
Assay [2] concerns the target Serine/threonine-protein kinase PLK3 (Homo sapiens) (UniProt Q9H4B4). As to the kind of experiment: Inhibition of PLK3 (unknown origin) at 1 uM by Ambit Kinomescan binding assay relative to control; values are per cent of control.
For assay [3], the system named is Epidermal growth factor receptor (Homo sapiens), P00533 [UNDEFINED MUTATION]. As to the kind of experiment: Inhibition of EGFR S752-I759del mutant (unknown origin) at 1 uM by Ambit Kinomescan binding assay relative to control.
Sequence of Epidermal growth factor receptor (Homo sapiens), P00533 [UNDEFINED MUTATION] (P00533 whole entry, looked up, stated change not applied): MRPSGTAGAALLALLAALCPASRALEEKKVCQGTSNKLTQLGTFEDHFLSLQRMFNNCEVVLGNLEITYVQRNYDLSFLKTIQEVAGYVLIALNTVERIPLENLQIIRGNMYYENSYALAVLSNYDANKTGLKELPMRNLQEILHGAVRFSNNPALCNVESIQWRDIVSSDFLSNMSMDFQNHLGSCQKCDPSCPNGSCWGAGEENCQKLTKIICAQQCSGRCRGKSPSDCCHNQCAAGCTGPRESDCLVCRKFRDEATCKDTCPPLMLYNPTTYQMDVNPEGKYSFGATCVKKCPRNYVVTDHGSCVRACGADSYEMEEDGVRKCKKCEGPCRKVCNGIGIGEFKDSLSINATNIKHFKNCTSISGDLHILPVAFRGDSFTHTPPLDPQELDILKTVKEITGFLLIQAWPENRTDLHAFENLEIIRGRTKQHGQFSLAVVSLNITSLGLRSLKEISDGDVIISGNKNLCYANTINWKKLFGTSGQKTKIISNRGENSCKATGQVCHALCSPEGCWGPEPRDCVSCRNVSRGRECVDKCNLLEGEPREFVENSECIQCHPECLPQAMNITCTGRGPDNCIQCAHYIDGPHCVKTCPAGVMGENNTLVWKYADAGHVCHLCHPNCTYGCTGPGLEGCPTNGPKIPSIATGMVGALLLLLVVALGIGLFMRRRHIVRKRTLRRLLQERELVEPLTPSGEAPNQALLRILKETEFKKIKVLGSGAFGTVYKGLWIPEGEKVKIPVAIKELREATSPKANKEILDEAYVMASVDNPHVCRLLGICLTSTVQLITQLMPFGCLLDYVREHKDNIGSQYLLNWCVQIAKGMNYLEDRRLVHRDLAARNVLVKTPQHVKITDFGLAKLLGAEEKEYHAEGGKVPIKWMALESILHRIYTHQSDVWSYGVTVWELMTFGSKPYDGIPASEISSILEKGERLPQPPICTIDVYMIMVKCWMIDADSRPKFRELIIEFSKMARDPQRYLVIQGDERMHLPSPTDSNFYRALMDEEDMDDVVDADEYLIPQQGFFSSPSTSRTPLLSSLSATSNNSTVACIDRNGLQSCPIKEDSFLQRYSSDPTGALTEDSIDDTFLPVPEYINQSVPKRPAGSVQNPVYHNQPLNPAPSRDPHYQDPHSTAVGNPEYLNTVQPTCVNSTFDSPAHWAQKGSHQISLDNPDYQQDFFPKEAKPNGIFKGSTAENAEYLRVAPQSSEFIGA
Assay [4] deals with Tyrosine-protein kinase CSK (Homo sapiens, UniProt P41240). Description: Inhibition of CSK ACT labeling site harbouring VSDFGLTKEASSTQDTGK in human Huh-7 cells at 10 uM by KiNativ Profiling analysis relative to control. It is filed as cell-based.
Sequence of Tyrosine-protein kinase CSK (P41240 2-450 limits assumed): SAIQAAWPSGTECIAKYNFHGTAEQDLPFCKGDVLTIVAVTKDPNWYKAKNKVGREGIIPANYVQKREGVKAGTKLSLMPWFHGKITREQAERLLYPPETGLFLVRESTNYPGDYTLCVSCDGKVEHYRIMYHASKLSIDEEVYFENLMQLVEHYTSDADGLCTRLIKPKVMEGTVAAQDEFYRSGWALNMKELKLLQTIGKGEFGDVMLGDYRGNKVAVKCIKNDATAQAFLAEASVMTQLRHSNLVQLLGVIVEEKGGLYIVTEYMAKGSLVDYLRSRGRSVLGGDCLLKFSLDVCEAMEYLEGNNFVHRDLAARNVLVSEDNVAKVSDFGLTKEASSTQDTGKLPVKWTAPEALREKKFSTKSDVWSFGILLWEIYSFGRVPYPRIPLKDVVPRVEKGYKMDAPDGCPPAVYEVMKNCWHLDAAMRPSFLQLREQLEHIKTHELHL
The target in assay [5] is Serine/threonine-protein kinase Nek6 (Homo sapiens) (UniProt Q9HC98). As to the kind of experiment: Inhibition of NEK6 ACT labeling site in human Huh-7 cells at 1 uM by KiNativ Profiling analysis relative to control. The assay is classed as cell-based.
Sequence of Serine/threonine-protein kinase Nek6 (Homo sapiens) (Q9HC98 whole entry): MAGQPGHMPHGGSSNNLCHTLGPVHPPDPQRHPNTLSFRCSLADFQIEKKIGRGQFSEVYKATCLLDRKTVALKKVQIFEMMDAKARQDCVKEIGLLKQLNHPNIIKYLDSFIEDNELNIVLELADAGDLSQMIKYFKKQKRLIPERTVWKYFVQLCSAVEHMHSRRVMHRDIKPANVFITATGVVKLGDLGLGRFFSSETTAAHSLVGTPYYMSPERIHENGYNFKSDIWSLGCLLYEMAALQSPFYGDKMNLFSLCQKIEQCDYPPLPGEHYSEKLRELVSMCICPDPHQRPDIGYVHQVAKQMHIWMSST
Assay [6] has as its target T1, Mitogen-activated protein kinase kinase kinase 15 (Homo sapiens) (UniProt Q6ZN16).
T1 sequence (whole entry): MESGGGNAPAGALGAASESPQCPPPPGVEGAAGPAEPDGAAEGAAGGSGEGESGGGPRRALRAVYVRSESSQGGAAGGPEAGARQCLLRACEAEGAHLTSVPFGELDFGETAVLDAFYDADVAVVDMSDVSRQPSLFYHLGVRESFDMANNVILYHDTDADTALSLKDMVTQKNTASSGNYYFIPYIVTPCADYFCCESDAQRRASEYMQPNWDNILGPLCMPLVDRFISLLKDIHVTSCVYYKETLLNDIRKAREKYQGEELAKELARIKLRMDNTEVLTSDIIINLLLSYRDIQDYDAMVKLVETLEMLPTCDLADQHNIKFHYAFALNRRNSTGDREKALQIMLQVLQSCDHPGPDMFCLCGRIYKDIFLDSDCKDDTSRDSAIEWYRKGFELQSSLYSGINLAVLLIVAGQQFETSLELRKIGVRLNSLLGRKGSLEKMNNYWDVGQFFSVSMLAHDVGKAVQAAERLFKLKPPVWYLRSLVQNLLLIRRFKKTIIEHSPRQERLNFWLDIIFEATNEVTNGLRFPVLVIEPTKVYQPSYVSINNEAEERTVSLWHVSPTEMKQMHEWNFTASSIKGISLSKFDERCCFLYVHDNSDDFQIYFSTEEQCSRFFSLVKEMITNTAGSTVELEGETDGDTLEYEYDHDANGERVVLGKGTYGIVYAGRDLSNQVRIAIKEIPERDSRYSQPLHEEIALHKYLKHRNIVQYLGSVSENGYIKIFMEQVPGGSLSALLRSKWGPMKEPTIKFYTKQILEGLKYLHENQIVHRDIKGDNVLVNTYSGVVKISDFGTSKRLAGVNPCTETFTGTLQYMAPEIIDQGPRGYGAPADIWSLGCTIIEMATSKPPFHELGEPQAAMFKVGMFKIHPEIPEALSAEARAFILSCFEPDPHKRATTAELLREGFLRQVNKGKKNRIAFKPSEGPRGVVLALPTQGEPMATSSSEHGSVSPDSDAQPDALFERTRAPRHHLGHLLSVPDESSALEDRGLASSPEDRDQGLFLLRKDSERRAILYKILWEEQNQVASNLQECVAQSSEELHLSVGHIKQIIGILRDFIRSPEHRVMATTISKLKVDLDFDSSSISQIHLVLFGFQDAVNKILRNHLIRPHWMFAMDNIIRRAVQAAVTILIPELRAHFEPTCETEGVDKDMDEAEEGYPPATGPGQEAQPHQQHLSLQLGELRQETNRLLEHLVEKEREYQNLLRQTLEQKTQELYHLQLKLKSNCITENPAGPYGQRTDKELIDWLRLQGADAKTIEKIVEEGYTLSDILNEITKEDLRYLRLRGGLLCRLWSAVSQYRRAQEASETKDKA
Description: Inhibition of MAP3K15 Lys1 labeling site harbouring IAIKEIPER in human A-375 cells at 5 uM by KiNativ Profiling analysis relative to control. The assay is classed as cell-based.

Assay [7] concerns the target Wee1-like protein kinase (Homo sapiens) (UniProt P30291). Description: Inhibition of Wee1 K2 labeling site in human Huh-7 cells at 10 uM by KiNativ Profiling analysis relative to control. It is filed as cell-based.
Assay [8] has as its target Cyclin-dependent kinase 20 (Homo sapiens) (UniProt Q8IZL9). As to the kind of experiment: Inhibition of CCRK Lys2 labeling site in human A-375 cells at 5 uM by KiNativ Profiling analysis relative to control. It is filed as cell-based.

Sequence of Cyclin-dependent kinase 20 (Homo sapiens) (Q8IZL9 whole entry): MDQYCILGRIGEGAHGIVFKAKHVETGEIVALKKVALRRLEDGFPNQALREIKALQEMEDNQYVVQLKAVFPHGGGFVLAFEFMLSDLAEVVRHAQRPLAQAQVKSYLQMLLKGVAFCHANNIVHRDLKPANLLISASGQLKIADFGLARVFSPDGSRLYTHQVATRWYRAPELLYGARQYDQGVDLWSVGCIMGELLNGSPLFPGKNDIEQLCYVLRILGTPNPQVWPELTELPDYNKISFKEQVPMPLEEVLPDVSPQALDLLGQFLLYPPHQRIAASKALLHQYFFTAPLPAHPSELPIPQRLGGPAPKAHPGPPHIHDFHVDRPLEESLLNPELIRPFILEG
Sequence of Wee1-like protein kinase (Homo sapiens) (P30291 whole entry, looked up): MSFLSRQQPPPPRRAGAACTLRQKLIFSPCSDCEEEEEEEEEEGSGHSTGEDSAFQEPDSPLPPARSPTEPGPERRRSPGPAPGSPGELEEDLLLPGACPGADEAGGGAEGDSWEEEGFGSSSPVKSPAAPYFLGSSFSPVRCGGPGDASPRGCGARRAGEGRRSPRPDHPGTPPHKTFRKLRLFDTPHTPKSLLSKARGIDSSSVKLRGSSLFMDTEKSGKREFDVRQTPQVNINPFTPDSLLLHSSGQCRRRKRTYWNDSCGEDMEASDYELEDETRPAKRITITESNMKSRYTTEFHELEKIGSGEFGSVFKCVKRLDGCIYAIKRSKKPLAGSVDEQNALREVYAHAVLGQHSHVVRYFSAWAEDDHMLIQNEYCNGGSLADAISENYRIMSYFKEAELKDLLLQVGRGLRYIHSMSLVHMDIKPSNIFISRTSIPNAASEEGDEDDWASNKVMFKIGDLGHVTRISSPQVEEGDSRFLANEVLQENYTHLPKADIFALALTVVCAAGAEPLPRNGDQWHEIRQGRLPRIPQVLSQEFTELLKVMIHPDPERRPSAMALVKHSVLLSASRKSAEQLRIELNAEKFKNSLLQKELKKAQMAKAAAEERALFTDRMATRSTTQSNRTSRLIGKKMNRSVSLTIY
Sequence of Serine/threonine-protein kinase PLK3 (Homo sapiens) (Q9H4B4 whole entry, looked up): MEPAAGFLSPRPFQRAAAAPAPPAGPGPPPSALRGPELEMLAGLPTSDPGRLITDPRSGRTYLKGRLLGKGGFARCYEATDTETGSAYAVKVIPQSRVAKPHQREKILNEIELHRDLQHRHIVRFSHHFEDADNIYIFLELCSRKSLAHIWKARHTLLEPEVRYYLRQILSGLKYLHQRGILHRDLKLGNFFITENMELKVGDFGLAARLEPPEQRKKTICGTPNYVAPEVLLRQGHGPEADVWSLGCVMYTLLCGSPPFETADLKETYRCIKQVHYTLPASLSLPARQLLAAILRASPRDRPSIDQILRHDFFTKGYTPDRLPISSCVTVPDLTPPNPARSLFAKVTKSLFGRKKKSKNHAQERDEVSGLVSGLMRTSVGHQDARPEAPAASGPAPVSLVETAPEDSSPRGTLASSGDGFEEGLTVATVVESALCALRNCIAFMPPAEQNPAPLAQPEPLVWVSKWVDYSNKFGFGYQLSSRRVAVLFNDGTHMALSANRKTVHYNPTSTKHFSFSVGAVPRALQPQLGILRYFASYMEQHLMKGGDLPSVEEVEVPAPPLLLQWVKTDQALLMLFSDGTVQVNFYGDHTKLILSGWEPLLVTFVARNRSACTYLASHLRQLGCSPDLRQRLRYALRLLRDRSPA

Take `CCN1CCN(Cc2ccc(NC(=O)c3ccc(C)c(/C=C/c4cnc5[nH]ccc5c4OC)c3)cc2C(F)(F)F)CC1`: the residual activity in assay [1] is 0.75%; in assay [2], 100%. In addition, in assay [3], the inhibition turned out to be 1.4%.
With `CCN1CCN(Cc2ccc(NC(=O)c3ccc(C)c(Oc4ccnc5[nH]ccc45)c3)cc2C(F)(F)F)CC1`, the inhibition in assay [4] is 10.8%; in assay [5] it was 15.5%; in assay [6], -0.6%; in assay [7], -2.8%; in assay [8], 4.5%.
